Results published in patent US20120040977A1, “INHIBITORS OF HCV NS5A” (PRESIDIO PHARMACEUTICALS, INC., priority 2009, published 2012).

System: HCV genotype 1b replicon
Assay: HCV replicon assay (HCV 1b_Huh-Luc/Neo-ET cell line, luciferase readout)
Assay type: cell-based
Conditions: Hepatitis C virus; bicistronic genotype 1b replicon in Huh 7 cells, 72 h incubation, luciferase enzyme activity; read-out: Inhibition of HCV genotype 1b
Experimental: Biological activity of the compounds of the invention was determined using an HCV replicon assay. The HCV 1b_Huh-Luc/Neo-ET cell line persistently expressing a bicistronic genotype 1b replicon in Huh 7 cells was obtained from ReBLikon GMBH. This cell line was used to test compound inhibition using luciferase enzyme activity readout as a measurement of compound inhibition of replicon levels.
On Day 1 (the day after plating cells), each compound is added in triplicate to the cells. Plates are incubated for 72 h prior to determining luciferase levels. Enzyme activity was measured using a Bright-Glo Kit (cat. number E2620) manufactured by Promega Corporation. The following equation was used to generate a percent control value for each compound.
% Control=(Average Compound Value/Average Control)*100
The EC50 value was determined using GraphPad Prism and the following equation:
Y=Bottom+(Top−Bottom)/(1+10̂((LogIC50−X)*HillSlope))
EC50 values of compounds are determined several times in the replicon assay. […]

In the case of `COC(=O)N[C@H](C(=O)N1CCC[C@H]1C(=O)N[C@@H](C)c1ccc(-c2ccc(-c3cnc([C@@H]4CCCN4C(=O)[C@@H](NC(=O)OC)C(C)C)[nH]3)cc2)cc1)C(C)C` [Compound 95], the EC50 is reported as under 1 nM.

With `C[C@H](NC(=O)[C@@H]1CCCN1C(=O)[C@H](NC(=O)C1CC1)c1ccccc1)c1ccc(-c2ccc(-c3cnc([C@@H]4CCCN4C(=O)[C@H](NC(=O)C4CC4)c4ccccc4)[nH]3)cc2)cc1` [Compound 37] the EC50 was under 1 nM.

Compound `COC(=O)N[C@@H](C(=O)N1CCC[C@H]1C(=O)Nc1ccc(-c2ccc(-c3cnc([C@@H]4CCCN4C(=O)[C@H](NC(=O)OC)c4ccccc4)[nH]3)cn2)cc1)c1ccccc1` [Compound 72] has an EC50 of under 1 nM.

`O=C(N[C@@H](C(=O)N1CCC[C@H]1C(=O)Nc1ccc(-c2ccc(-c3cnc([C@@H]4COCCN4C(=O)[C@H](NC(=O)C4CC4)c4ccccc4)[nH]3)cc2)cc1)c1ccccc1)C1CC1` [Compound 11] showed an EC50 of under 1 nM.

Compound `COC(=O)N[C@H](C(=O)N1CCC[C@H]1C(=O)NCc1ccc(-c2ccc3nc([C@@H]4CCCN4C(=O)[C@@H](NC(=O)OC)C(C)C)[nH]c3c2)cn1)C(C)C` [Compound 121] has an EC50 of 10 to 999 nM.

Work on `O=C(N[C@@H](C(=O)N1CCC[C@H]1c1ncc(-c2ccc(Oc3ccc(-c4cnc([C@@H]5CCCN5C(=O)[C@H](NC(=O)C5CC5)c5ccccc5)[nH]4)cc3)cc2)[nH]1)c1ccccc1)C1CC1` [Compound 54] yielded an EC50 of under 1 nM.

With `COC(=O)N[C@@H](C(=O)N1CCC[C@H]1CNC(=O)c1ccc(-c2ccc(-c3cnc([C@@H]4CCCN4C(=O)[C@H](NC(=O)OC)c4ccccc4)[nH]3)nc2)cc1)c1ccccc1` [Compound 91] the EC50 was under 1 nM.

For `COC(=O)N[C@H](C(=O)N1CCC[C@H]1C(=O)NCc1ccc(-c2ccc3nc([C@@H]4CCCN4C(=O)[C@@H](NC(=O)OC)C(C)C)[nH]c3c2)cc1)C(C)C` [Compound 87], the EC50 was 1 to 9.9 nM.

`COC(=O)N[C@@H](C)C(=O)N1CCC[C@H]1C(=O)N[C@H](C)c1ccc(-c2ccc(-c3cnc([C@@H]4CCCN4C(=O)[C@H](C)NC(=O)OC)[nH]3)cc2)cc1` [Compound 96] gave an EC50 of 1 to 9.9 nM.

In the case of `COC(=O)N[C@H](C(=O)N1CCC[C@H]1C(=O)Nc1ccc(-c2ccc3c(c2)CCc2nc([C@@H]4CCCN4C(=O)[C@@H](NC(=O)OC)C(C)C)[nH]c2-3)cc1)C(C)C` [Compound 112], the EC50 is reported as 1 to 9.9 nM.

Compound `CC(C)(C)OC(=O)N[C@@H](C(=O)N1CCC[C@H]1C(=O)Nc1ccc(-c2ccc(-c3cnc([C@@H]4CCCN4C(=O)[C@H](NC(=O)OC(C)(C)C)c4ccccc4)[nH]3)cc2)cc1)c1ccccc1` [Compound 26] has an EC50 of under 1 nM.

With `COC(=O)N[C@@H](C(=O)N1CCC[C@H]1c1ncc(-c2ccc(-c3ccc(C(=O)NC[C@@H]4CCCN4C(=O)[C@H](NC(=O)N4CCN(C)CC4)c4ccccc4)cc3)cc2)[nH]1)c1ccccc1` [Compound 66] the EC50 was under 1 nM.

`COC(=O)N[C@H](C(=O)N1CCC[C@H]1C(=O)NCc1ccc(-c2ccc(-c3cnc([C@@H]4CCCN4C(=O)[C@@H](NC(=O)OC)C(C)C)[nH]3)cc2)cn1)C(C)C` [Compound 119] gave an EC50 of 10 to 999 nM.

With `C#CC[C@H](NC(=O)OC)C(=O)N1CCC[C@H]1C(=O)NCc1ccc(-c2ccc(-c3cnc([C@@H]4CCCN4C(=O)[C@H](CC#C)NC(=O)OC)[nH]3)cc2)cc1` [Compound 81] the EC50 was 10 to 999 nM.

Work on `COC(=O)N[C@@H](C)C(=O)N1CCC[C@H]1C(=O)N[C@@H](C)c1ccc(-c2ccc(-c3cnc([C@@H]4CCCN4C(=O)[C@H](C)NC(=O)OC)[nH]3)cc2)cc1` [Compound 94] yielded an EC50 of 1 to 9.9 nM.

`O=C(N[C@@H](C(=O)N1CCC[C@H]1COc1ccc(-c2ccc(-c3cnc([C@@H]4CCCN4C(=O)[C@H](NC(=O)N4CCOCC4)c4ccccc4)[nH]3)cc2)cc1)c1ccccc1)N1CCOCC1` [Compound 32] showed an EC50 of under 1 nM.

`COC(=O)N[C@H](C(=O)N1CCC[C@H]1CNC(=O)c1ccc(-c2ccc(-c3cnc([C@@H]4CCCN4C(=O)[C@@H](NC(=O)OC)C4CCOCC4)[nH]3)cc2)cc1)C1CCOCC1` [Compound 123] gave an EC50 of 1 to 9.9 nM.

With `COC(=O)N[C@H](C(=O)N1CCC[C@H]1C(=O)N[C@H](C)c1ccc(-c2ccc(-c3cnc([C@@H]4CCCN4C(=O)[C@@H](NC(=O)OC)C(C)C)[nH]3)cc2)cc1)C(C)C` [Compound 97] the EC50 was 1 to 9.9 nM.

`C[C@H](NC(=O)[C@@H]1CCCN1C(=O)[C@H](NC(=O)N1CCOCC1)c1ccccc1)c1ccc(-c2ccc(-c3cnc([C@@H]4CCCN4C(=O)[C@H](NC(=O)N4CCOCC4)c4ccccc4)[nH]3)cc2)cc1` [Compound 38] was tested, and the EC50 was 1 to 9.9 nM.

`C=CC[C@H](NC(=O)OC)C(=O)N1CCC[C@H]1C(=O)Nc1ccc(-c2ccc(-c3cnc([C@@H]4CCCN4C(=O)[C@H](CC=C)NC(=O)OC)[nH]3)cc2)cc1` [Compound 75] gave an EC50 of 1 to 9.9 nM.

For `COC(=O)N[C@@H](C(=O)N1CCC[C@H]1C(=O)Nc1ccc(-c2ccc(-c3cnc([C@@H]4CCCN4C(=O)[C@@H](c4ccccc4)N(C)C)[nH]3)cc2)cc1)c1ccccc1` [Compound 59], the EC50 was under 1 nM.

With `COC(=O)N[C@H](C(=O)N1CCC[C@H]1c1nc2c([nH]1)-c1ccc(-c3ccc(NC(=O)[C@@H]4CCCN4C(=O)[C@H](NC(=O)OC)c4ccccc4)cc3)cc1CC2)C(C)C` [Compound 117] the EC50 was under 1 nM.

`CN1CCN(C(=O)N[C@@H](C(=O)N2CCC[C@H]2CNC(=O)c2ccc(-c3ccc(-c4cnc([C@@H]5CCCN5C(=O)[C@H](NC(=O)N5CCN(C)CC5)c5ccccc5)[nH]4)cc3)cc2)c2ccccc2)CC1` [Compound 57] gave an EC50 of 1 to 9.9 nM.

Compound `COC(=O)N[C@H](C(=O)N1CCC[C@H]1C(=O)NCc1ccc(-c2ccc3cc(-c4cnc([C@@H]5CCCN5C(=O)[C@@H](NC(=O)OC)C(C)C)[nH]4)ccc3n2)cc1)C(C)C` [Compound 86] has an EC50 of 1 to 9.9 nM.

`COC(=O)N[C@H](C(=O)N1CCC[C@H]1CNC(=O)c1ccc(-c2ccc(-c3cnc([C@@H]4CCCN4C(=O)[C@@H](NC(=O)OC)C(C)C)[nH]3)cc2)cn1)C(C)C` [Compound 83] showed an EC50 of 1 to 9.9 nM.

With `O=C(N[C@@H](C(=O)N1CCC[C@H]1C(=O)NCc1ccc(-c2ccc(-c3cnc([C@@H]4CCCN4C(=O)[C@H](NC(=O)C4CC4)c4ccccc4)[nH]3)cc2)cc1)c1ccccc1)C1CC1` [Compound 43] the EC50 was under 1 nM.

With `COC(=O)N[C@@H](C(=O)N1CCC[C@H]1c1ncc(-c2ccc(-c3ccc(NC(=O)[C@@H]4CCCN4C(=O)[C@@H](c4ccccc4)N(C)C)cc3)cc2)[nH]1)c1ccccc1` [Compound 60] the EC50 was under 1 nM.

`COC(=O)N[C@H](C(=O)N1CCC[C@H]1CNC(=O)c1ccc(-c2ccc3nc([C@@H]4CCCN4C(=O)[C@@H](NC(=O)OC)C(C)C)[nH]c3c2)cn1)C(C)C` [Compound 115] gave an EC50 of 10 to 999 nM.

Work on `COC(=O)N[C@@H](C(=O)N[C@@H](C)c1ncc(-c2ccc(-c3ccc(C(=O)NC[C@@H]4CCCN4C(=O)[C@H](NC(=O)OC)c4ccccc4)cc3)cc2)[nH]1)c1ccccc1` [Compound 89] yielded an EC50 of under 1 nM.

`C[C@@H](NC(=O)[C@@H]1CCCN1C(=O)[C@H](NC(=O)N1CCN(C)CC1)c1ccccc1)c1ccc(-c2ccc(-c3cnc([C@@H]4CCCN4C(=O)[C@H](NC(=O)N4CCN(C)CC4)c4ccccc4)[nH]3)cc2)cc1` [Compound 42] gave an EC50 of 1 to 9.9 nM.

`COC(=O)N[C@@H](C)C(=O)N1CCC[C@H]1C(=O)NCc1ccc(-c2ccc(-c3cnc([C@@H]4CCCN4C(=O)[C@H](C)NC(=O)OC)[nH]3)cc2)cc1` [Compound 104] gave an EC50 of 10 to 999 nM.

For `COC(=O)N[C@H](C(=O)N1CCC[C@H]1C(=O)Nc1ccc(-c2ccc3c(ccc4nc([C@@H]5CCCN5C(=O)[C@@H](NC(=O)OC)C(C)C)[nH]c43)c2)cc1)C(C)C` [Compound 114], the EC50 was under 1 nM.
